Experimental data as given in article PMC4435632, “Phase 1 study of ixazomib, an investigational proteasome inhibitor, in advanced non-hematologic malignancies” (Investigational New Drugs, 2015).

What was measured:
[1] = system: patients with advanced non-hematologic malignancies; assay: Safety: adverse events graded by NCI-CTCAE v3.0, phase 1 study of IV ixazomib; format: in vivo
From the text: Patients received ixazomib as an IV bolus on days 1, 4, 8, and 11 of a 21-day cycle, for up to 12 cycles, or until disease progression or unacceptable toxicity. Patients who were thought to potentially benefit from prolonged therapy could receive continued treatment beyond 12 cycles according to the treating physician’s consideration. Patients could receive prophylactic antiviral therapy; prophylactic antidiarrheals and antiemetics were not employed initially but could be considered upon development of diarrhea or nausea/vomiting.
AEs were monitored throughout the study and were graded according to National Cancer Institute Common Terminology Criteria for Adverse Events (NCI-CTCAE) v3.0. Response assessments were undertaken by investigators using a consistent imaging modality in accordance with RECIST 1.0 [23] on days 18–21 of cycle 2 and subsequent cycles. For patients with prostate cancer, response and progressive disease were based on RECIST for measurable neoplastic disease or on measurement of serum PSA per modified PCWG2 criteria in the absence of measurable sites.
The safety population included all patients who received ≥1 dose of ixazomib, and the DLT-evaluable population, which was used for determination of the MTD, comprised patients who received all cycle 1 doses of ixazomib or experienced a DLT in cycle 1. […] The response-evaluable population included all patients who received ≥1 dose of ixazomib, had measurable disease at baseline, and had ≥1 post-baseline disease assessment. Approximately 16 response-evaluable patients were planned to be evaluated in each MTD expansion cohort.
All efficacy and safety data were summarized using descriptive statistics. Pharmacokinetic and pharmacodynamic parameters were calculated using noncompartmental methods (WinNonlin software v5.3).

[2] = Ixazomib in tumor biopsies (LC/MS/MS); format: in vivo, human; conditions: TPEC, 1.76 mg/m^2; 10 evaluable patients
Description: Tumor biopsies were analyzed for the presence of ixazomib using a quantified LC/MS/MS methodology validated in xenograft models. Expression of ATF-3 was measured in the TPEC using an IHC staining assay developed and validated using preclinical and human primary tumor samples. For this assay, formalin-fixed, paraffin-embedded tumor biopsy samples were obtained pre- and post-treatment (at 4–24 h post-dosing on day 1 or day 4 of cycle 1). Six 5 μm sections from each tumor sample were then cut (10 μm apart) and stained with antibody to ATF-3 (Santa Cruz Biotechnology, Inc., sc-188, lot:K1908) on a Discovery XT autostainer (Ventana Medical Systems, Inc.). After staining, whole slides were scanned and analyzed to calculate the percentage ATF-3-positive area for each section using the Genie™ (Aperio® ePathology Solutions) pattern recognition tool. The ATF-3-positive area was measured within the tumor region using the Positive Pixel Count algorithm, and the percentage ATF-3-positive area/total tumor area was then calculated for each section.
Approximately 16 patients were planned to be enrolled to the TPEC to estimate ixazomib concentrations in tumors and target engagement as ATF-3 expression levels. […] This value was used to determine the minimum number of sections (n = 6) for pharmacodynamic analysis and the size of the fold change in ATF-3 that could be detected with 80 % power. […]

SMILES: CC(C)C[C@H](NC(=O)CNC(=O)c1cc(Cl)ccc1Cl)B(O)O [ixazomib]
- Any on-study deaths ([1]; Dose-escalation cohort (n=23)): 3 (13) n (%)
- Any on-study deaths ([1]; MTD expansion cohort H&N (n=22)): 2 (9) n (%)
- Any on-study deaths ([1]; MTD expansion cohort NSCLC (n=20)): 0 n (%)
- Any on-study deaths ([1]; MTD expansion cohort PC (n=11)): 0 n (%)
- Any on-study deaths ([1]; MTD expansion cohort STS (n=20)): 1 (5) n (%)
- Any on-study deaths ([1]; MTD expansion cohort TPEC (n=20)): 1 (5) n (%)
- Any on-study deaths ([1]; Total (N=116)): 7 (6) n (%)
- Drug-related AE: alopecia ([1]; human, in vivo): < 1%
- Drug-related AE: circumoral edema ([1]; human, in vivo): < 1%
- Drug-related AE: dermatitis acneiform ([1]; human, in vivo): 2%
- Drug-related AE: dry skin ([1]; human, in vivo): 2%
- Drug-related AE: erythema nodosum ([1]; human, in vivo): < 1%
- Drug-related AE: exfoliative rash ([1]; human, in vivo): < 1%
- Drug-related AE: night sweats ([1]; human, in vivo): < 1%
- Drug-related AE: petechiae ([1]; human, in vivo): < 1%
- Drug-related AE: pruritus ([1]; human, in vivo): 4%
- Drug-related AE: rash ([1]; human, in vivo): 6%
- Drug-related AE: rash erythematous ([1]; human, in vivo): 9%
- Drug-related AE: rash macular ([1]; human, in vivo): 13%
- Drug-related AE: rash maculo-papular ([1]; human, in vivo): 17%
- Drug-related AE: rash papular ([1]; human, in vivo): 10%
- Drug-related AE: rash pruritic ([1]; human, in vivo): 13%
- Drug-related AE: skin exfoliation ([1]; human, in vivo): < 1%
- Drug-related AE: skin hyperpigmentation ([1]; human, in vivo): < 1%
- Drug-related AE: swelling face ([1]; human, in vivo): < 1%
- Drug-related AE: urticaria ([1]; human, in vivo): < 1%
- Drug-related PN NEC ([1]; human, in vivo): 15%
- Drug-related PN NEC, grade 1 ([1]; human, in vivo): 6 n
- Drug-related PN NEC, grade 2 ([1]; human, in vivo): 8 n
- Drug-related grade ≥3 AE: erythema nodosum ([1]; human, in vivo): < 1%
- Drug-related grade ≥3 AE: rash ([1]; human, in vivo): < 1%
- Drug-related grade ≥3 AE: rash erythematous ([1]; human, in vivo): 2%
- Drug-related grade ≥3 AE: rash macular ([1]; human, in vivo): 3%
- Drug-related grade ≥3 AE: rash maculo-papular ([1]; human, in vivo): 7%
- Drug-related grade ≥3 AE: rash papular ([1]; human, in vivo): < 1%
- Drug-related grade ≥3 AE: rash pruritic ([1]; human, in vivo): 3%
- Drug-related grade ≥3 fatigue ([1]; human, in vivo): 9%
- Drug-related grade ≥3 thrombocytopenia ([1]; human, in vivo): 23%
- Drug-related serious AE: dehydration ([1]; human, in vivo): 3%
- Drug-related serious AE: fatigue ([1]; human, in vivo): 3%
- Drug-related serious AE: nausea ([1]; human, in vivo): 3%
- Drug-related serious AE: thrombocytopenia ([1]; human, in vivo): 6%
- Drug-related serious AE: vomiting ([1]; human, in vivo): 3%
- Drug-related serious AEs ([1]; human, in vivo): 28%
- Drug-related thrombocytopenia ([1]; human, in vivo): 45%
- Duration of rash, median ([1]; human, in vivo): 15 days
- Duration of rash, range ([1]; human, in vivo): 4 to 90 days
- Grade 3 PN NEC ([1]; human, in vivo): 3%
- Patients who discontinued ixazomib due to treatment-emergent AEs ([1]; human, in vivo): 15%
- Patients who required platelet transfusions ([1]; human, in vivo): 4%
- Patients with ≥1 drug-related AE ([1]; human, in vivo): 90%
- Patients with ≥1 drug-related grade ≥3 AE ([1]; human, in vivo): 57%
- Patients with ≥1 treatment-emergent AE ([1]; human, in vivo): 99%
- Patients with ≥1 treatment-emergent grade ≥3 AE ([1]; human, in vivo): 72%
- Drug-related grade ≥3 skin and subcutaneous (SC) tissue disorders ([1]; human, in vivo, sc): 16%
- Treatment-related skin and subcutaneous (SC) tissue disorders ([1]; human, in vivo, sc): 53%
- On-study deaths ([1]; none considered treatment-related): seven
- Ixazomib in post-dose tumor biopsies [2]: present in all 10 post-dose biopsies analyzed
